Results: PubChem BioAssay AID2060893 (Molecular Pharmacology Branch, DTP, NCI, 2025)
Each block holds one compound with its values, some of them ahead of it.

Test system: K86415-001-R-J1-PDC complex spheroids, viability
Assay: Anticancer human tumor K86415-001-R-J1-PDC patient-derived lung adenocarcinoma cell line growth inhibition [RAS]
Settings: for IC50: curve of first compound; for viability, T/C: stronger effect = lower value
How it was run: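 Multi-cell-type spheroids: tumor cells plus HUVEC endothelial cells and mesenchymal stem cells. RAS-pathway inhibitors were combined with targeted agents, each dosed in half-log steps down from clinical Cmax, or from 10 microM when Cmax was unknown.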

[1] = second compound 0.000949 µM, first compound 0.0316 µM
[2] = second compound 0.000949 µM, first compound 0.1 µM
[3] = second compound 0.000949 µM, first compound 0.316 µM
[4] = second compound 0.000949 µM, first compound 1 µM
[5] = second compound 0.003 µM, first compound 0.0316 µM
[6] = second compound 0.003 µM, first compound 0.1 µM
[7] = second compound 0.003 µM, first compound 0.316 µM
[8] = second compound 0.003 µM, first compound 1 µM
[9] = second compound 0.00949 µM, first compound 0.0316 µM
[10] = second compound 0.00949 µM, first compound 0.1 µM
[11] = second compound 0.00949 µM, first compound 0.316 µM
[12] = second compound 0.00949 µM, first compound 1 µM
[13] = second compound 0.03 µM, first compound 0.0316 µM
[14] = second compound 0.03 µM, first compound 0.1 µM
[15] = second compound 0.03 µM, first compound 0.316 µM
[16] = second compound 0.03 µM, first compound 1 µM
[17] = second compound 0.0949 µM, first compound 0.0316 µM
[18] = second compound 0.0949 µM, first compound 0.1 µM
[19] = second compound 0.0949 µM, first compound 0.316 µM
[20] = second compound 0.0949 µM, first compound 1 µM
[21] = second compound 0.3 µM, first compound 0.0316 µM
[22] = second compound 0.3 µM, first compound 0.1 µM
[23] = second compound 0.3 µM, first compound 0.316 µM
[24] = second compound 0.3 µM, first compound 1 µM
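Note: spheroids exposed to agents for seven days before readout.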

IC50 (second compound 0.000949 µM): < 0.00316 µM | IC50 (second compound 0.003 µM): < 0.00316 µM | IC50 (second compound 0.00949 µM): < 0.00316 µM | IC50 (second compound 0.03 µM): < 0.00316 µM | IC50 (second compound 0.0949 µM): < 0.00316 µM | IC50 (second compound 0.3 µM): < 0.00316 µM
SMILES: Nc1ccn(C2OC(CO)C(O)C2(F)F)c(=O)n1 (centres undefined) + CCn1c(-c2cc(N3CCN(C)CC3)cnc2C(C)OC)c2c3cc(ccc31)-c1csc(n1)CC(NC(=O)C1CC1C)C(=O)N1CCCC(N1)C(=O)OCC(C)(C)C2
viability, T/C (second compound 0.000949 µM, first compound 0.00316 µM): 47% | viability, T/C (second compound 0.000949 µM, first compound 0.01 µM): 45.2% | viability, T/C [1]: 34% | viability, T/C [2]: 26.3% | viability, T/C [3]: 21.8% | viability, T/C [4]: 16.3% | viability, T/C (second compound 0.003 µM, first compound 0.00316 µM): 24.2% | viability, T/C (second compound 0.003 µM, first compound 0.01 µM): 19.4% | viability, T/C [5]: 18.2% | viability, T/C [6]: 19.3% | viability, T/C [7]: 15.4% | viability, T/C [8]: 11.8% | viability, T/C (second compound 0.00949 µM, first compound 0.00316 µM): 11.9% | viability, T/C (second compound 0.00949 µM, first compound 0.01 µM): 8.79% | viability, T/C [9]: 10.1% | viability, T/C [10]: 13.8% | viability, T/C [11]: 9.53% | viability, T/C [12]: 9.18% | viability, T/C (second compound 0.03 µM, first compound 0.00316 µM): 6.18% | viability, T/C (second compound 0.03 µM, first compound 0.01 µM): 6.2% | viability, T/C [13]: 6.46% | viability, T/C [14]: 5.05% | viability, T/C [15]: 3.47% | viability, T/C [16]: 4.42% | viability, T/C (second compound 0.0949 µM, first compound 0.00316 µM): 4.43% | viability, T/C (second compound 0.0949 µM, first compound 0.01 µM): 4.18% | viability, T/C [17]: 4.08% | viability, T/C [18]: 3.58% | viability, T/C [19]: 2.79% | viability, T/C [20]: 2.41% | viability, T/C (second compound 0.3 µM, first compound 0.00316 µM): 3.51% | viability, T/C (second compound 0.3 µM, first compound 0.01 µM): 3.18% | viability, T/C [21]: 3.3% | viability, T/C [22]: 2.52% | viability, T/C [23]: 3.52% | viability, T/C [24]: 2.26%

IC50 (second compound 0.000949 µM): 0.043 µM | IC50 (second compound 0.003 µM): < 0.0316 µM | IC50 (second compound 0.00949 µM): < 0.0316 µM | IC50 (second compound 0.03 µM): < 0.0316 µM | IC50 (second compound 0.0949 µM): < 0.0316 µM | IC50 (second compound 0.3 µM): < 0.0316 µM
SMILES: CC(C)NCC(C(=O)N1CCN(c2ncnc3c2C(C)CC3O)CC1)c1ccc(Cl)cc1 (centres undefined) + CCn1c(-c2cc(N3CCN(C)CC3)cnc2C(C)OC)c2c3cc(ccc31)-c1csc(n1)CC(NC(=O)C1CC1C)C(=O)N1CCCC(N1)C(=O)OCC(C)(C)C2
viability, T/C [1]: 52.1% | viability, T/C [2]: 48.3% | viability, T/C [3]: 28.8% | viability, T/C [4]: 31.1% | viability, T/C (second compound 0.000949 µM, first compound 3.16 µM): 29% | viability, T/C (second compound 0.000949 µM, first compound 10 µM): 13.3% | viability, T/C [5]: 25% | viability, T/C [6]: 15.2% | viability, T/C [7]: 13.7% | viability, T/C [8]: 16% | viability, T/C (second compound 0.003 µM, first compound 3.16 µM): 10.4% | viability, T/C (second compound 0.003 µM, first compound 10 µM): 3.32% | viability, T/C [9]: 12.1% | viability, T/C [10]: 15.4% | viability, T/C [11]: 6.91% | viability, T/C [12]: 4.13% | viability, T/C (second compound 0.00949 µM, first compound 3.16 µM): 1.63% | viability, T/C (second compound 0.00949 µM, first compound 10 µM): 1% | viability, T/C [13]: 5.32% | viability, T/C [14]: 4.39% | viability, T/C [15]: 3.56% | viability, T/C [16]: 1.38% | viability, T/C (second compound 0.03 µM, first compound 3.16 µM): 0.66% | viability, T/C (second compound 0.03 µM, first compound 10 µM): 0.65% | viability, T/C [17]: 2.69% | viability, T/C [18]: 3.08% | viability, T/C [19]: 1.6% | viability, T/C [20]: 0.75% | viability, T/C (second compound 0.0949 µM, first compound 3.16 µM): 0.62% | viability, T/C (second compound 0.0949 µM, first compound 10 µM): 0.56% | viability, T/C [21]: 2.88% | viability, T/C [22]: 1.88% | viability, T/C [23]: 1.86% | viability, T/C [24]: 0.88% | viability, T/C (second compound 0.3 µM, first compound 3.16 µM): 0.75% | viability, T/C (second compound 0.3 µM, first compound 10 µM): 0.84%
